Experimental data as given in ChEMBL document CHEMBL1142268, “Histone deacetylase inhibitors: from bench to clinic” (J Med Chem, 2008).
Calls of active or inactive are those of the source. No cut-off for these calls is given here.

Legend:
[1] = target: T1, Histone deacetylase 4 (Homo sapiens, UniProt P56524)
[2] = target: T2, Histone deacetylase 8 (Homo sapiens, UniProt Q9BY41)
T2 sequence (Q9BY41 whole entry): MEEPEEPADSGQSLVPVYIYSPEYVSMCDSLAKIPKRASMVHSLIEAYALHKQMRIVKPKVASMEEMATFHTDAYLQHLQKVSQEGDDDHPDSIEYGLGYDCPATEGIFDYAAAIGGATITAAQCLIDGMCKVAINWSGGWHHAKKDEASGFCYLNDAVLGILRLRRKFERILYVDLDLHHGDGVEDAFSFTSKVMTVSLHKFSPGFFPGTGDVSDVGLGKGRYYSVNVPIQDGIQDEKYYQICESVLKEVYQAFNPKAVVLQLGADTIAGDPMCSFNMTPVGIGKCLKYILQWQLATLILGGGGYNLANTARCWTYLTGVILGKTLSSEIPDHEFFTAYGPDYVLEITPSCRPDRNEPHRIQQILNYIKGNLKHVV

[3] = target: Histone deacetylase 5 (Homo sapiens, UniProt Q9UQL6)
Histone deacetylase 5, sequence (Q9UQL6 whole entry): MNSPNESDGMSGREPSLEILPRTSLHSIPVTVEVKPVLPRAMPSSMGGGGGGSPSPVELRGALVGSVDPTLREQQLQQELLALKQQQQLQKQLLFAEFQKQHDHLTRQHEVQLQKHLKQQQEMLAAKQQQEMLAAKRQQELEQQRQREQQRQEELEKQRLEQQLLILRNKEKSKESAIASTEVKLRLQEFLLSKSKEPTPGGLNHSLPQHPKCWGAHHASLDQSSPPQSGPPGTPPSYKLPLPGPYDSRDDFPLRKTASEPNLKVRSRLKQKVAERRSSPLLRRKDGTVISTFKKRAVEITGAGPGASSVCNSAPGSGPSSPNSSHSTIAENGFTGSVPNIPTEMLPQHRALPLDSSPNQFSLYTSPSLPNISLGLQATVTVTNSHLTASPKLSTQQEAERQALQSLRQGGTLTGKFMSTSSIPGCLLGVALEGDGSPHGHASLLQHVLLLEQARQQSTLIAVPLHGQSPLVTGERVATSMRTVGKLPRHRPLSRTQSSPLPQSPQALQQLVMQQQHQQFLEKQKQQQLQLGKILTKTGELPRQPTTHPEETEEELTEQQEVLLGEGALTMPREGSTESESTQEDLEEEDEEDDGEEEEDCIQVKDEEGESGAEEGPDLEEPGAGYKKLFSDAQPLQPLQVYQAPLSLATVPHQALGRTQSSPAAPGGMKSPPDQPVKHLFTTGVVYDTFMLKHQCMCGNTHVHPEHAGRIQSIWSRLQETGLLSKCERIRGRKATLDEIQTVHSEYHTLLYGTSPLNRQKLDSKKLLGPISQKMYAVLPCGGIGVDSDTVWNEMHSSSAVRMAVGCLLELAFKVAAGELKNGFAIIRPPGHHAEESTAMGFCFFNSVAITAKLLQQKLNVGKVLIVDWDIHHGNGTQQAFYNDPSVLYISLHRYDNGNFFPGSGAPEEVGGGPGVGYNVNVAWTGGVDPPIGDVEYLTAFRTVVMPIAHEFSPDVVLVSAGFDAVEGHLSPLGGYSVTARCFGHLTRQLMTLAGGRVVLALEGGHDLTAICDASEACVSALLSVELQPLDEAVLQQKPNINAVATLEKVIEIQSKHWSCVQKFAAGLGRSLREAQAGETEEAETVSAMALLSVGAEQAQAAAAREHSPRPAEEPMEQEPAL

[4] = target: Histone deacetylase 7 (Homo sapiens, UniProt Q8WUI4)
Histone deacetylase 7, sequence (Q8WUI4 whole entry): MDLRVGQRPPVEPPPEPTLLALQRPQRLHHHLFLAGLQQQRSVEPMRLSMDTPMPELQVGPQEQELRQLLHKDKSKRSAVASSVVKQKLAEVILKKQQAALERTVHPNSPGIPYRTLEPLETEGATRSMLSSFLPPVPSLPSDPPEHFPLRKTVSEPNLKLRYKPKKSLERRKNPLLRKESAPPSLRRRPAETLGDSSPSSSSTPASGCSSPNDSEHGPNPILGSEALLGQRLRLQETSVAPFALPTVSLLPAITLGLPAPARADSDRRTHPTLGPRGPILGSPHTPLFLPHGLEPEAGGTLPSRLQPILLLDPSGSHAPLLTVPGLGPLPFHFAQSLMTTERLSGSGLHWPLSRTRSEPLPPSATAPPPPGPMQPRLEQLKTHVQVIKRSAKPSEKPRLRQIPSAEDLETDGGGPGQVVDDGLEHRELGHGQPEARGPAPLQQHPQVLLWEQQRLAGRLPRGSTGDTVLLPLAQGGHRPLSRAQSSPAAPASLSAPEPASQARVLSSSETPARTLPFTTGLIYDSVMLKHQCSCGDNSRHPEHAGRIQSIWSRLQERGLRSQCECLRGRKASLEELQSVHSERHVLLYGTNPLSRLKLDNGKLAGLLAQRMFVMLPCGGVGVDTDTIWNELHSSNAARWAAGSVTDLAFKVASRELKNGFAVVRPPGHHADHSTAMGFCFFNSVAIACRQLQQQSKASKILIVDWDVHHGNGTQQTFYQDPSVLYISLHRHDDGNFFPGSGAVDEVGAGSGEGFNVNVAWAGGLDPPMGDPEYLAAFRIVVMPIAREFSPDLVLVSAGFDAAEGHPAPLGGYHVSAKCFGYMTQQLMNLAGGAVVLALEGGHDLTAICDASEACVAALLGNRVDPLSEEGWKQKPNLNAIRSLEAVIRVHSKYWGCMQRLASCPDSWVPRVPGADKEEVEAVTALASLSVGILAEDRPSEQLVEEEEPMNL

[5] = system: HCT-116; assay: Inhibition of human HCT116 cells; assay type: functional, cell-based
[6] = system: SW48; assay: Antitumor activity against human SW48 cells xenografted in nude mouse model at 25 mg/kg, ip; assay type: functional; settings: route intraperitoneal, read-out: TGI
[7] = system: SW48; assay: Antitumor activity against human SW48 cells xenografted in nude mouse model at 60 mg/kg, po; assay type: functional; settings: read-out: TGI
[8] = system: HCT-116; assay: Antitumor activity against human HCT116 cells xenografted in nude mouse model at 20 mg/kg, ip; assay type: functional; settings: HCT-116, ip, route intraperitoneal, read-out: TGI
[9] = system: A549; assay: Antitumor activity against human A549 cells xenografted in nude mouse model at 70 mg/kg, po; assay type: functional; settings: read-out: TGI
[10] = target: T3, Protein deacetylase HDAC6 (Homo sapiens, UniProt Q9UBN7)
T3 sequence (Q9UBN7 whole entry): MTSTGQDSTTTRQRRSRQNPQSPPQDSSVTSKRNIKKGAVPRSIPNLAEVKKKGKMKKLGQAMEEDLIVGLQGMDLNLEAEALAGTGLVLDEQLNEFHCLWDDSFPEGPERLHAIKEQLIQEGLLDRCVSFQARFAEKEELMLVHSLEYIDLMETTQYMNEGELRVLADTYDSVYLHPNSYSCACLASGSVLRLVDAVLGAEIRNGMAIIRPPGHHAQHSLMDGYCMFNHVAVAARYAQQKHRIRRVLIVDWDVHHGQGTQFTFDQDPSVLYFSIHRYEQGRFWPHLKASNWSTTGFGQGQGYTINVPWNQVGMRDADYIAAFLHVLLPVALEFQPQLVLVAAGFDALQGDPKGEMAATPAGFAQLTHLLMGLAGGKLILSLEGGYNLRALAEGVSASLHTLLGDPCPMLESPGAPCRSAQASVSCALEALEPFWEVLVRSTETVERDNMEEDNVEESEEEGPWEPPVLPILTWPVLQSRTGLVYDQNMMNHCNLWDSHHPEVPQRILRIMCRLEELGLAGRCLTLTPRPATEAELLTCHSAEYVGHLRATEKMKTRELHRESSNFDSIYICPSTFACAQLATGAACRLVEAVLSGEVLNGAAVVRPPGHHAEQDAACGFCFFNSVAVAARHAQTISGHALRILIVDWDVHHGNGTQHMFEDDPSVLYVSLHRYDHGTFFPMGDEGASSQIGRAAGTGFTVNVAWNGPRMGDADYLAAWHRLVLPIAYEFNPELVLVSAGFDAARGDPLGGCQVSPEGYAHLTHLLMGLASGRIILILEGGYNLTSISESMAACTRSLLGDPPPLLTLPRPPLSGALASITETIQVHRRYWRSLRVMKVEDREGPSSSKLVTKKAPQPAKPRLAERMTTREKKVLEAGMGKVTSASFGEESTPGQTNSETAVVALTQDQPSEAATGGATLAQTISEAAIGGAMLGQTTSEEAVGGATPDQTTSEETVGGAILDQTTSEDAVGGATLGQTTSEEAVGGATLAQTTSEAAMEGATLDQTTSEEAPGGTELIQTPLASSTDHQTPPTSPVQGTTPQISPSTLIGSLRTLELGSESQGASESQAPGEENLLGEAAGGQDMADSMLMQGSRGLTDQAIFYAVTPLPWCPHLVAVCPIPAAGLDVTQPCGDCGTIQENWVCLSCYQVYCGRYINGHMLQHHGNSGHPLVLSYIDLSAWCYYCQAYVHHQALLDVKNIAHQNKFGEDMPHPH

[11] = target: Histone deacetylase 9 (Homo sapiens, UniProt Q9UKV0)
[12] = target: T1, Histone deacetylase 4; assay: Inhibition of HDAC4 at 50 uM
[13] = target: Histone deacetylase 3 (Homo sapiens, UniProt O15379)
Histone deacetylase 3, sequence (O15379 whole entry): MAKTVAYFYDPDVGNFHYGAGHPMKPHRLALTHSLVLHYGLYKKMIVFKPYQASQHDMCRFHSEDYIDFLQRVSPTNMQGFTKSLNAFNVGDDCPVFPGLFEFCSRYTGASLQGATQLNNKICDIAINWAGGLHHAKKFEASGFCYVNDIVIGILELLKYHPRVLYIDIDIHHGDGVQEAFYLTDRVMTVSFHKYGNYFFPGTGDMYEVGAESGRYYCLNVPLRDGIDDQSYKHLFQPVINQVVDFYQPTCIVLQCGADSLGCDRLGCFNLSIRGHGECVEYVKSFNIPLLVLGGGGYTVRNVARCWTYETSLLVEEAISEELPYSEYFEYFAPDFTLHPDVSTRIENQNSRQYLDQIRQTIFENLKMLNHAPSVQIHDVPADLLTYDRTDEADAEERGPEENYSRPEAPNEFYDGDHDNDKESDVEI

[14] = system: MCF7; assay: Inhibition of human MCF7 cells; assay type: functional, cell-based
[15] = Inhibition of human CCD1059SK cells; assay type: functional, cell-based
[16] = system: A549; assay: Antitumor activity against human A549 cells xenografted in nude mouse model at 20 mg/kg, ip; assay type: functional; settings: route intraperitoneal, read-out: TGI
[17] = system: SW-620; assay: Inhibition of human SW620 cells; assay type: functional, cell-based
[18] = system: A549; assay: cells; settings: Homo sapiens
Description: Antiproliferative activity against human A549 cells

[19] = system: MKN-45; assay: Antiproliferative activity against human MKN45 cells; assay type: functional, cell-based
[20] = system: SW48; assay: Antitumor activity against human SW48 cells xenografted in nude mouse model at 20 mg/kg, ip; assay type: functional; settings: route intraperitoneal, read-out: TGI
[21] = system: SK-BR-3; assay: Antiproliferative activity against human SKBR3 cells; assay type: functional, cell-based
[22] = system: HeLa; assay: Inhibition of human HeLa cells; assay type: functional, cell-based
[23] = system: HL-60; assay: Inhibition of human HL60 cells; assay type: functional
[24] = target: Cytochrome P450 3A4 (Homo sapiens, UniProt P08684); assay: Inhibition of CYP3A4; assay type: ADME
Cytochrome P450 3A4, sequence (P08684 whole entry): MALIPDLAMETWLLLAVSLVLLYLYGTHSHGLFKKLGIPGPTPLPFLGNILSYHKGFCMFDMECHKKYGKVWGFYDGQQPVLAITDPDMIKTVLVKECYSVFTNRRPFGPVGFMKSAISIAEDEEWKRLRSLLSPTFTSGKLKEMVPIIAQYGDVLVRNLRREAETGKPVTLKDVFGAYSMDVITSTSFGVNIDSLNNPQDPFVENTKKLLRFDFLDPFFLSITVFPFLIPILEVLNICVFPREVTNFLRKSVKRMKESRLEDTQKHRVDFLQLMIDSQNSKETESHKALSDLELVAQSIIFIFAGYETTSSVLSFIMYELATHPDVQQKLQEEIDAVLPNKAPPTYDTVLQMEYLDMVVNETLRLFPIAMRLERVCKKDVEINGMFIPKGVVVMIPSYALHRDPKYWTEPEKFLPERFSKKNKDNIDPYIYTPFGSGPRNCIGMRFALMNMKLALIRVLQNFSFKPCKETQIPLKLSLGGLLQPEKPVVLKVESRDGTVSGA

[25] = system: SW48; assay: Antitumor activity against human SW48 cells xenografted in nude mouse model at 30 mg/kg, po; assay type: functional; settings: read-out: TGI
[26] = system: HCT-116; assay: Antitumor activity against human HCT116 cells xenografted in nude mouse model at 75 mg/kg, ip; assay type: functional; settings: HCT-116, ip, route intraperitoneal, read-out: TGI
[27] = Bioavailability in […] dosed rat; assay type: ADME, organism-based; settings: in vivo
[28] = system: A549; assay: Antitumor activity against human A549 cells xenografted in nude mouse model at 50 mg/kg, po; assay type: functional; settings: read-out: TGI
[29] = system: A549; assay: Antitumor activity against human A549 cells xenografted in nude mouse model at 40 mg/kg, ip; assay type: functional; settings: route intraperitoneal, read-out: TGI
[30] = system: SW48; assay: Antitumor activity against human SW48 cells xenografted in nude mouse model at 75 mg/kg, ip; assay type: functional; settings: route intraperitoneal, read-out: TGI
[31] = system: PANC-1; assay: Antitumor activity against human PANC1 cells xenografted in nude mouse model at 50 mg/kg, po; assay type: functional; settings: read-out: TGI
[32] = target: T4, Histone deacetylase 1 (Homo sapiens, UniProt Q13547)
T4 sequence (Q13547 whole entry): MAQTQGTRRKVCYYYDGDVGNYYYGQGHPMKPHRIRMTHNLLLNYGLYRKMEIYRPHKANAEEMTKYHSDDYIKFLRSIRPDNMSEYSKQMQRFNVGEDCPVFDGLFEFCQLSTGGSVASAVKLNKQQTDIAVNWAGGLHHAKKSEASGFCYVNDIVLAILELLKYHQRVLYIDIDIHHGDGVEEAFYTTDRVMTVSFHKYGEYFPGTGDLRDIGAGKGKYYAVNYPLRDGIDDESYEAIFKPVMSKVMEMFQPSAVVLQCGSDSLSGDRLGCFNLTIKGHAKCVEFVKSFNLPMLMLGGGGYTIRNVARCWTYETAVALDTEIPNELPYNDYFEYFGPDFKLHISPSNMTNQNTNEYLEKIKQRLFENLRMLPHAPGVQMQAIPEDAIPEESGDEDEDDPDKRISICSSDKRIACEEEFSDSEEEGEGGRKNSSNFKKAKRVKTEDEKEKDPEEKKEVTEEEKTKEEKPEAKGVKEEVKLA
Description: Inhibition of human HDAC1 assessed as histone H4 acetylation in cell based assay

[33] = target: T4, Histone deacetylase 1; remark: listed apart in the source
Description: Inhibition of human HDAC1

[34] = system: U-937; assay: Inhibition of human U937 cells; assay type: functional, cell-based
[35] = target: Histone deacetylase 7 (Homo sapiens) (UniProt Q8WUI4); assay: Inhibition of HDAC7
[36] = system: A2780; assay: Inhibition of human A2780 cells; assay type: functional, cell-based
[37] = system: G-401; assay: Inhibition of human G401 cells; assay type: functional, cell-based
[38] = target: T1, Histone deacetylase 4; remark: listed apart in the source
[39] = target: T4, Histone deacetylase 1; remark: listed apart in the source
[40] = target: T4, Histone deacetylase 1; assay: Inhibition of HDAC1 from human HeLa cells; assay type: cell-based
[41] = target: Histone deacetylase 2 (Homo sapiens, UniProt Q92769)
Histone deacetylase 2, sequence (Q92769 whole entry): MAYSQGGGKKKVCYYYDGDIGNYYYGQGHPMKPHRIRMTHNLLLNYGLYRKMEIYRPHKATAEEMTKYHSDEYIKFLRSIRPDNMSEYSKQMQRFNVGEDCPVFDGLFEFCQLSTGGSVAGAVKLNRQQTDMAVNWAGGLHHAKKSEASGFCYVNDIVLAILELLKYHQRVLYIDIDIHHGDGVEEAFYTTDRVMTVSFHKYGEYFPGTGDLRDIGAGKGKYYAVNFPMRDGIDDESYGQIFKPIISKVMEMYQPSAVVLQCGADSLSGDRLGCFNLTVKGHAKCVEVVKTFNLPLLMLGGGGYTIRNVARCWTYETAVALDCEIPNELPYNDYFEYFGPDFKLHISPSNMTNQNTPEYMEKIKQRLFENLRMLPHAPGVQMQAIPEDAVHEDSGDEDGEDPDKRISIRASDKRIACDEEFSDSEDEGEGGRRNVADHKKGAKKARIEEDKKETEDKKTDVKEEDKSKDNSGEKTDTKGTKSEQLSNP

[42] = Growth inhibition of human renal epithelial cells; assay type: functional, cell-based; settings: Epithelial cell
[43] = Metabolic stability in human liver microsomes; assay type: ADME, Microsome
[44] = system: SNB-78; assay: Inhibition of human SNB78 cells; assay type: functional, cell-based
[45] = system: NCI-H460; assay: Inhibition of human NCI-H460 cells; assay type: functional, cell-based
[46] = system: NCI-H226; assay: Inhibition of human NCI-H226 cells; assay type: functional, cell-based
[47] = Inhibition of human RFX631L cells; assay type: functional
[48] = system: MDA-MB-231; assay: Inhibition of human MDA-MB-231 cells; assay type: functional, cell-based
[49] = system: LOX IMVI; assay: Inhibition of human LOX-IMVI cells; assay type: functional, cell-based
[50] = system: DU-145; assay: Inhibition of human DU145 cells; assay type: functional, cell-based
[51] = system: SK-OV-3; assay: Inhibition of human SKOV3 cells; assay type: functional, cell-based
[52] = system: St-4; assay: Inhibition of human St4 cells; assay type: functional, cell-based

T1 sequence (P56524 whole entry): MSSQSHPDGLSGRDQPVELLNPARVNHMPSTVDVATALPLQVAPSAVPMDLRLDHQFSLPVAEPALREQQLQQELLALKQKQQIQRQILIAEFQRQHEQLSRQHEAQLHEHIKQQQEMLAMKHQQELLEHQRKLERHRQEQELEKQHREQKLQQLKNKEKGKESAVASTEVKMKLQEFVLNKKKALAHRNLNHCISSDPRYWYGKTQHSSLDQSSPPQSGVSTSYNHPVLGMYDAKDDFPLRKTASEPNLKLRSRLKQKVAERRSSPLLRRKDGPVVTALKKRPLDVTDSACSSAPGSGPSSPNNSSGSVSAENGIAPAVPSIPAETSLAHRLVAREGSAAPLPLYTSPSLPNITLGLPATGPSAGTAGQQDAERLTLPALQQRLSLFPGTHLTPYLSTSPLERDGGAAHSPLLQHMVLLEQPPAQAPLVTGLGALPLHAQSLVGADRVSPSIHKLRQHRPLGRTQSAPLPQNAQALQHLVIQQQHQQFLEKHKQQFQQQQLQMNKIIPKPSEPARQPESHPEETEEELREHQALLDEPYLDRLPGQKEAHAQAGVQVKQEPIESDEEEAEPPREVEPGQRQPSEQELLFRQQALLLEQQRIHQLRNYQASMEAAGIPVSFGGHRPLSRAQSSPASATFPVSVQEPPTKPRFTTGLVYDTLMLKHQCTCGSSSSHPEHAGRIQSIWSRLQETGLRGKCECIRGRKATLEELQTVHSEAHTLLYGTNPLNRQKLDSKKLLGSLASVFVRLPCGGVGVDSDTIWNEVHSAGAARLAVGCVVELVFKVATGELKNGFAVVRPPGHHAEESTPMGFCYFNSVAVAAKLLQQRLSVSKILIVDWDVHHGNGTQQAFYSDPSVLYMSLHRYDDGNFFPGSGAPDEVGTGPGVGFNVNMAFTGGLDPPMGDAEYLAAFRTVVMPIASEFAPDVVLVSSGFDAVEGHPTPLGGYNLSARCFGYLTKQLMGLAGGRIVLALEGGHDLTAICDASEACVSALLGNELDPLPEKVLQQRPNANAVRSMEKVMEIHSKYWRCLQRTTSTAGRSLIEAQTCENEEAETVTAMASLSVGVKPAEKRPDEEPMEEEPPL

Compound: CC(=O)Nc1ccc(C(=O)Nc2cc(-c3cccs3)ccc2N)cc1
- IC50 [1]: > 20000 nM
- IC50 [2]: > 20000 nM
- IC50 [3]: > 20000 nM
- IC50 [4]: > 20000 nM

Compound: COc1cc(NCc2ccc(/C=C/C(=O)Nc3ccccc3N)cc2)cc(OC)c1OC
- IC50 [5]: 2000 nM
- inhibition in vivo at 25 mg/kg [6]: 73%
- inhibition in vivo at 60 mg/kg [7]: 16%
- inhibition in vivo at 20 mg/kg [8]: 80%
- inhibition in vivo at 70 mg/kg [9]: 40%

Compound: CC(C)[C@H]1NC(=O)[C@@H](C)[C@@H](C/C=C\CCC(=O)O)NC(=O)[C@@H](Cc2ccccc2)NC(=O)[C@@H](C)NC1=O [AZUMAMIDE E]
- IC50 [2]: 3700 nM
- IC50 [3]: 10000 nM
- IC50 [10]: 12000 nM
- IC50 [11]: 28000 nM
- IC50 [4]: 9700 nM
- inhibition [12]: 30%
- IC50 [13]: 80 nM

Compound: Nc1ccccc1NC(=O)c1ccc(CNC(=O)OCc2cccnc2)cc1 [ENTINOSTAT]
- IC50 [14]: 4300 nM
- IC50 [5]: 500 nM
- IC50 [15]: 65000 nM
- inhibition in vivo at 20 mg/kg [16]: 46%
- IC50 [17]: 3200 nM
- IC50 [18]: 3580 nM
- inhibition in vivo at 20 mg/kg [8]: 56%
- IC50 [19]: 4160 nM
- inhibition in vivo at 20 mg/kg [20]: 68%
- IC50 [21]: 870 nM

Compound: Nc1ccc(F)cc1NC(=O)c1ccc(CNC(=O)/C=C/c2ccccc2)cc1
- GI50 [22]: 40000 nM
- GI50 [23]: 400 nM

Compound: O=C(NO)c1ccc(-c2ccn(CCNCc3ccc4c(c3)OCO4)n2)s1
- IC50 [24]: 510 nM
- IC50 [19]: 630 nM

Compound: COc1ccc(NCc2ccc(C(=O)Nc3ccccc3N)cc2)cc1OC
- inhibition in vivo at 30 mg/kg [25]: 78%
- IC50 [5]: 400 nM
- inhibition in vivo at 75 mg/kg [26]: 86%
- bioavailability [27]: 20%
- inhibition in vivo at 50 mg/kg [28]: 67%
- inhibition in vivo at 40 mg/kg [29]: 73%
- inhibition in vivo at 75 mg/kg [30]: 100%
- inhibition in vivo at 50 mg/kg [31]: 84%

Compound: Nc1ccccc1NC(=O)CCCCCCNC(=O)c1ccc(-c2ccccc2)nc1
- EC50 [32]: 5000 nM
- IC50 [5]: 5000 nM
- IC50 [33]: 3000 nM

Compound: CC(=O)CCCCC[C@H](NC1CCCCN1C)C(=O)Nc1nc(-c2ccccc2)cs1 (stereo not given in full)
- IC50 [22]: 430 nM
- IC50 [34]: 450 nM
- IC50 [14]: 230 nM
- IC50 [5]: 670 nM
- Activity [35]: inactive
- IC50 [36]: 1700 nM
- IC50 [33]: 55 nM
- IC50 [37]: 250 nM
- AC50 [38]: Not Active
- IC50 [2]: 3000 nM
- IC50 [3]: 1900 nM
- IC50 [18]: 2000 nM
- IC50 [39]: 55 nM
- IC50 [40]: 430 nM
- IC50 [41]: 170 nM
- IC50 [10]: 13 nM
- IC50 [42]: > 20000 nM
- IC50 [13]: 14 nM
- microsomal CLint [43]: 54 µL/min/mg

Compound: CC(C)C(=O)SCCCCCCC(=O)Nc1nc(-c2ccccc2)cs1
- EC50 [44]: 9100 nM
- EC50 [45]: 2000 nM
- EC50 [5]: 3000 nM
- EC50 [46]: 2600 nM
- EC50 [47]: 2400 nM
- EC50 [48]: 2300 nM
- EC50 [49]: 1100 nM
- EC50 [50]: 4500 nM
- EC50 [51]: 4500 nM
- EC50 [52]: 5000 nM
